The text below walks through data of patent US20070009566A1, “Method and apparatus for treating bacterial infections in devices” (priority 2005, published 2007).

The subject of test [1] is S. aureus strain Smith diffuse. Description: Rat central venous catheter (CVC)-associated infection model, lock technique. Conditions: day seven; for Quantitative blood culture / Quantitative catheters/venous tissues culture: mean ± S.D.; for Antimicrobial activity in quantitative peripheral blood cultures (in words): at concentration of MBC for adherent cells, compared with untreated control.

Test [2] concerns S. aureus strain Smith diffuse (SD), adherent organisms. Briefly: microbe, parasite or virus in culture. Particulars: Staphylococcus aureus.
Test [3] deals with S. aureus strain Smith diffuse (SD), planktonic organisms. Briefly: Susceptibility testing by classical method (microbroth dilution, MIC/MBC, planktonic organisms). The test is classed as cell-based. Particulars: 10 μg of RIP pre-treatment (in 10 μL MH broth/well), 30 minutes. From the text: (§1) Organisms: The inventors chose the S. aureus strain Smith diffuse (SD).
National Committee for Clinical Laboratory Standards, Fifth Edition, Approved Standard M7-A5, Wayne, Pa. (2001).
In general terms: In broth dilution the organism is exposed to a series of concentrations in liquid medium.

Test [4] deals with S. aureus strain Smith diffuse (SD), adherent organisms.
Test [5] relates to S. aureus strain Smith diffuse (SD) biofilm. Description: Adherent biofilm formation (crystal violet, OD 570 nm). The test is classed as cell-based. Conditions: with addition of RIP into each well; data not shown. The procedure: as §1
Adherent biofilm formation for susceptibility testing: To develop a biofilm, 50 μL of Triptic Soy broth (“TSB”) containing 10^6 CFU/mL of bacteria was added under aseptic conditions to each well of a tissue culture-treated polystyrene 96-well plate containing 150 μL of TSB-2% glucose. […] To evaluate the formation of adherent biofilm, the remaining attached bacteria were fixed with 0.2 mL of 99% methanol per well, and after 15 min, plates were emptied and left to dry. […] Stepanovic et al., J Microbiol Methods 40:175-179 (2000); and Christensen et al., J Clin Microbiol 22:996-1006 (1985). The plates were air dried. The dye bound to the adherent cells was solubilized with 0.2 mL of 33% (v/v) glacial acetic acid per well.

Setting [6] is: antibiotic lock 1,024 μg/ml, 1 hour dwell.
Setting [7] is: read-out: MBC, adherent organisms, 10 μg of RIP pre-treatment (in 10 μL MH broth/well), 30 minutes.
The mark [8] stands for this setting: read-out: MBC, adherent organisms, without RIP pre-treatment.
Where [9] appears, read: read-out: MIC, adherent organisms, 10 μg of RIP pre-treatment (in 10 μL MH broth/well), 30 minutes.
Where [10] appears, read: read-out: MIC, adherent organisms, without RIP pre-treatment.
[11] abbreviates: 10 μg of RIP pre-treatment (in 10 μL MH broth/well), 30 minutes.
[12] abbreviates: antibiotic lock 8.00 μg/ml (MBC for adherent cells), 1 hour dwell.

≈ marks a conversion by molar mass, not a printed value. Where two headings read alike, the source gives them in different places. Where no end group is shown, it is not given here.

On to `O=C(O)c1cn(C2CC2)c2cc(N3CCNCC3)c(F)cc2c1=O` [Ciprofloxacin, ciprofloxacin], for which, in test [1] (setting [6]), the Quantitative blood culture is listed as 6.6 × 10^1 ± 1.4 × 10^1bc CFU/ml and the “Quantitative catheters/venous tissues culture” value was 7.4 × 10^5 ± 2.1 × 10^5bc CFU/ml. Also, the “Antimicrobial activity in quantitative peripheral blood cultures (in words)” value in test [1] is “weak antimicrobial activity”.
With `C[C@@H](O)[C@H]1C(=O)N2C(C(=O)O)=C(SCCN=CN)C[C@H]12` [Imipenem, imipenem], the values for the MBC in test [2] (setting [7]) and in test [2] (setting [8]) were 2 µg/mL (≈ 6.68 µM) and 8 µg/mL (≈ 26.7 µM), respectively. For the same molecule, the MIC in test [2] (setting [9]) was 0.5 µg/mL (≈ 1.67 µM); in test [2] (setting [10]), 1 µg/mL (≈ 3.34 µM). The “MBC, planktonic organisms” value in test [3] worked out at 1.00 µg/mL (≈ 3.34 µM). In test [3], the “MIC, planktonic organisms” value was determined as 0.50 µg/mL (≈ 1.67 µM). The “MIC, adherent organisms” value in test [4] (setting [11]) was determined as 0.50 µg/mL (≈ 1.67 µM); in test [4] (without RIP pre-treatment) it was 1.00 µg/mL (≈ 3.34 µM). In addition, the Quantitative blood culture is reported as 5.8 × 10^3 ± 1.2 × 10^3 CFU/ml in test [1] (setting [12]) and 5.7 × 10^1 ± 1.2 × 10^1bc CFU/ml in test [1] (setting [6]). In addition, the entries for the “Quantitative catheters/venous tissues culture” value in test [1] (setting [12]) and in test [1] (setting [6]) were 6.9 × 10^6 ± 2.1 × 10^6 CFU/ml and 6.0 × 10^5 ± 1.9 × 10^5bc CFU/ml, respectively.
Turning to `CN[C@H](CC(C)C)C(=O)N[C@H]1C(=O)N[C@@H](CC(N)=O)C(=O)N[C@H]2C(=O)N[C@H]3C(=O)N[C@H](C(=O)N[C@H](C(=O)O)c4cc(O)cc(O)c4-c4cc3ccc4O)[C@H](O)c3ccc(c(Cl)c3)Oc3cc2cc(c3O[C@@H]2O[C@H](CO)[C@@H](O)[C@H](O)[C@H]2O[C@H]2C[C@](C)(N)[C@H](O)[C@H](C)O2)Oc2ccc(cc2Cl)[C@H]1O` [Vancomycin], the MBC in test [2] (setting [7]) turned out to be 2 µg/mL (≈ 1.38 µM); in test [2] (setting [8]), 16 µg/mL (≈ 11 µM). The MIC in test [2] (setting [9]) amounted to 1 µg/mL (≈ 0.69 µM); in test [2] (setting [10]) it was 2 µg/mL (≈ 1.38 µM). The “MBC, planktonic organisms” value in test [3] was 2.00 µg/mL (≈ 1.38 µM). In addition, the “MIC, planktonic organisms” value in test [3] was 1.00 µg/mL (≈ 0.69 µM). In addition, the results for the “MIC, adherent organisms” value in test [4] (setting [11]) and in test [4] (without RIP pre-treatment) were 1.00 µg/mL (≈ 0.69 µM) and 2.00 µg/mL (≈ 1.38 µM), respectively. Besides, the Quantitative blood culture in test [1] (setting [6]) was 5.3 × 10^1 ± 1.1 × 10^1bc CFU/ml. Besides, in test [1] (setting [6]), the “Quantitative catheters/venous tissues culture” value was 5.4 × 10^5 ± 1.6 × 10^5bc CFU/ml. Moreover, the “Antimicrobial activity in quantitative peripheral blood cultures (in words)” value in test [1] is “weak antimicrobial activity”.
With YSPWTNF-NH2 [RIP, YSPWTNF-NH2], the “Slime production (photometrical method)” value in test [5] was “much lower”. Further, in test [1] (RIP-impregnated CVC alone), the Quantitative blood culture is listed as 3.4 × 10^1 ± 0.8 × 10^1b CFU/ml and the “Quantitative catheters/venous tissues culture” value is reported as 1.4 × 10^3 ± 0.3 × 10^3b CFU/ml.
